Laboratory results published in article PMC6704710, “Preclinical evaluation of 3D185, a novel potent inhibitor of FGFR1/2/3 and CSF-1R, in FGFR-dependent and macrophage-dominant cancer models” (Journal of Experimental & Clinical Cancer Research : CR, 2019).

Experiments:
Experiment in all cases: Eurofins kinase panel
Format in all cases: biochemical
Settings in all cases: read-out: Inhibition rate (%)
BrSK1(h) = target: T1, BrSK1(h) (Homo sapiens, UniProt Q8TDC3)
T1 construct: purchased Eurofins (KinaseProfiler)
T1 sequence (Q8TDC3 1-778): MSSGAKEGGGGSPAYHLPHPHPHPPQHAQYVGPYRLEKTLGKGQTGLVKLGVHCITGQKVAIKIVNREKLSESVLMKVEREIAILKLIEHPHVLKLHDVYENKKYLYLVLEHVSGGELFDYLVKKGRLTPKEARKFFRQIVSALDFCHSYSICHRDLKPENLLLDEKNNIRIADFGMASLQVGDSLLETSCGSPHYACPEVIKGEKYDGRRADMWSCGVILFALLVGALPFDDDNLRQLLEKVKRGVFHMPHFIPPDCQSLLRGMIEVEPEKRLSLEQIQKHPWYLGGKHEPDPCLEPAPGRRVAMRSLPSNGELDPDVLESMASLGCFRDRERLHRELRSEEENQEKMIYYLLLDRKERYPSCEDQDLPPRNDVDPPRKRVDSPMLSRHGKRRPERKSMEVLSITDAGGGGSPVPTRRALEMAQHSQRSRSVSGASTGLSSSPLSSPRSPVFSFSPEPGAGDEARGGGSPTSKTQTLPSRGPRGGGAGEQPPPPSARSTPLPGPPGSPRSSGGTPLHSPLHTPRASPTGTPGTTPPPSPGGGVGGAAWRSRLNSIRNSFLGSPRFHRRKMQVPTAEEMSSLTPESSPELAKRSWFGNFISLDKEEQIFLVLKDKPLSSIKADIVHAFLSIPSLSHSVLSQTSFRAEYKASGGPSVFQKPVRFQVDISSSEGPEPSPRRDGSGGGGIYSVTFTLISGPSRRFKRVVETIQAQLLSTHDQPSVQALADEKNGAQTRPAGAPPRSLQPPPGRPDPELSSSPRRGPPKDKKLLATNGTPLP

CaMKIγ(h) = target: T2, CaMKIγ(h) (Homo sapiens, UniProt Q96NX5)
T2 construct: purchased Eurofins (KinaseProfiler)

Met(Y1248H)(h) = target: T3, Met(Y1248H)(h) (Homo sapiens, UniProt P08581, Y1230H)
T3 construct: purchased Eurofins (KinaseProfiler)

NEK7(h) = target: T4, NEK7(h) (Homo sapiens, UniProt Q8TDX7)
T4 construct: purchased Eurofins (KinaseProfiler)

PKBγ(h) = target: T5, PKBγ(h) (Homo sapiens, UniProt Q9Y243)
T5 construct: purchased Eurofins (KinaseProfiler)

Ret (V804L)(h) = target: T6, Ret (V804L)(h) (Homo sapiens, UniProt P07949, V804L)
T6 construct: purchased Eurofins (KinaseProfiler)

Ret(V804M)(h) = target: T7, Ret(V804M)(h) (Homo sapiens, UniProt P07949, V804M)
T7 construct: purchased Eurofins (KinaseProfiler)

Rsk1(r) = target: T8, Rsk1(r) (Rattus norvegicus, UniProt Q63531)
T8 construct: purchased Eurofins (KinaseProfiler)

SAPK3(h) = target: T9, SAPK3(h) (Homo sapiens, UniProt P53778)
T9 construct: purchased Eurofins (KinaseProfiler)
T9 sequence (P53778 1-367): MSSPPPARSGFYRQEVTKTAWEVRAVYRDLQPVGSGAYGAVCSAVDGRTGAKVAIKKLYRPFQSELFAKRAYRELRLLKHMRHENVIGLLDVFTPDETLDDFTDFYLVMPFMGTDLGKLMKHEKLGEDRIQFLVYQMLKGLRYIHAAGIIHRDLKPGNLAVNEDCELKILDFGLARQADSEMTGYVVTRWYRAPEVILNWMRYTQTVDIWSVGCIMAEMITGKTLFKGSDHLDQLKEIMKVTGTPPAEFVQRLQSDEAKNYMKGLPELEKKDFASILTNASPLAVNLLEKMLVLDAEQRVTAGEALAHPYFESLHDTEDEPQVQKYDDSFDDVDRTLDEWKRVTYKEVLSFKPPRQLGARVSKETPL

TSSK3(h) = target: T10, TSSK3(h) (Homo sapiens, UniProt Q96PN8)
T10 construct: purchased Eurofins (KinaseProfiler)
T10 sequence (Q96PN8 1-268): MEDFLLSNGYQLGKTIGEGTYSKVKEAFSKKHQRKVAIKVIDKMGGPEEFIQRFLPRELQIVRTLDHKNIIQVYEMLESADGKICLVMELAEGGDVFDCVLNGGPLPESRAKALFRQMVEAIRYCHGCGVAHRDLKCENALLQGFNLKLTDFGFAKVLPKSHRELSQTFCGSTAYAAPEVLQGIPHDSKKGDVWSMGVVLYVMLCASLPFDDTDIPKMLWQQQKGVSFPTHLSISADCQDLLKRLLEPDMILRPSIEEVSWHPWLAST

TTBK2(h) = target: T11, TTBK2(h) (Homo sapiens, UniProt Q6IQ55)
T11 construct: purchased Eurofins (KinaseProfiler)
T11 sequence (Q6IQ55 whole entry): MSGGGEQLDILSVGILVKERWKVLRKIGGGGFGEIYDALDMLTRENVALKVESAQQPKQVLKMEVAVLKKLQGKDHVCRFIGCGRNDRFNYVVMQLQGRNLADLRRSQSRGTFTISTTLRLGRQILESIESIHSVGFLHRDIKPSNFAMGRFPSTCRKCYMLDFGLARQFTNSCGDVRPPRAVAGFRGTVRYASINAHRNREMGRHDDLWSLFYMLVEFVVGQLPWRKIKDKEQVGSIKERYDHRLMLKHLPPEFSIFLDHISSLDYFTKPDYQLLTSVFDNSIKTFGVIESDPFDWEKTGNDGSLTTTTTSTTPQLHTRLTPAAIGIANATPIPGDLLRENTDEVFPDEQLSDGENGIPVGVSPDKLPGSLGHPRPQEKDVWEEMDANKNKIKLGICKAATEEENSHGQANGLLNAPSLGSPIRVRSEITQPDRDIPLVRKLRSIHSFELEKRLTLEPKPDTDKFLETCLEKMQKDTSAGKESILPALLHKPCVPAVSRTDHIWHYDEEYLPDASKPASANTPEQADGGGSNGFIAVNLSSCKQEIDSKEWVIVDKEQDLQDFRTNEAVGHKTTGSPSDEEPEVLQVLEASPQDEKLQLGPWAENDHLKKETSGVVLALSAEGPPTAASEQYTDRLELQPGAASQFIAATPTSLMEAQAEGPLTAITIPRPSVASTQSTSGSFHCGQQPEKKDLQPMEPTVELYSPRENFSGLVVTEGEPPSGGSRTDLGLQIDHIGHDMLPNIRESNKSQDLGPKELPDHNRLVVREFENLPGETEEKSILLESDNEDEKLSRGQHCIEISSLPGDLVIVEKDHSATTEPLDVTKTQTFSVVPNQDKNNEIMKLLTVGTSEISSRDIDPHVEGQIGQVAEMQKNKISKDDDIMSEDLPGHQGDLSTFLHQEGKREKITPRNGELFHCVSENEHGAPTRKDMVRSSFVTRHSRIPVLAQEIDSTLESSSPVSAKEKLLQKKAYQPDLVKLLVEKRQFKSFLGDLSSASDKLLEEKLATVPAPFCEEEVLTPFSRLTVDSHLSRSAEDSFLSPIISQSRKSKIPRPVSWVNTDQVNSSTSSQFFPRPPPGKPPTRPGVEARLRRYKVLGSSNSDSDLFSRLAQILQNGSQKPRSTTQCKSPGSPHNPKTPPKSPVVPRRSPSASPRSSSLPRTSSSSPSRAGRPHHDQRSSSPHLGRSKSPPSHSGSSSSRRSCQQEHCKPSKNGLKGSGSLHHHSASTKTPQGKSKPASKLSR

T2 sequence (Q96NX5 whole entry): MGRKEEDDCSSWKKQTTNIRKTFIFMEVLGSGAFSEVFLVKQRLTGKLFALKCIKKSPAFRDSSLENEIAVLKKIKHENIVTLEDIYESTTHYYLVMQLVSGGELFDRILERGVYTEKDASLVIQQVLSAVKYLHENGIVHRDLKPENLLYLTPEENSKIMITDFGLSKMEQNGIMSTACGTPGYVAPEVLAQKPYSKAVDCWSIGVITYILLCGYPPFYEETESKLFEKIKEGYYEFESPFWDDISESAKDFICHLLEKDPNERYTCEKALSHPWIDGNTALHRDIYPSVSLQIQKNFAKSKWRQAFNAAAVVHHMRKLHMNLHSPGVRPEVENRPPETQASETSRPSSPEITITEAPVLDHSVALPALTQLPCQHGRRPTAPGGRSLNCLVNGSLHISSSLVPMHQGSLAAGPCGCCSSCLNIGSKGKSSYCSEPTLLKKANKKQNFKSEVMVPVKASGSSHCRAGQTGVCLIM
T8 sequence (Q63531 whole entry): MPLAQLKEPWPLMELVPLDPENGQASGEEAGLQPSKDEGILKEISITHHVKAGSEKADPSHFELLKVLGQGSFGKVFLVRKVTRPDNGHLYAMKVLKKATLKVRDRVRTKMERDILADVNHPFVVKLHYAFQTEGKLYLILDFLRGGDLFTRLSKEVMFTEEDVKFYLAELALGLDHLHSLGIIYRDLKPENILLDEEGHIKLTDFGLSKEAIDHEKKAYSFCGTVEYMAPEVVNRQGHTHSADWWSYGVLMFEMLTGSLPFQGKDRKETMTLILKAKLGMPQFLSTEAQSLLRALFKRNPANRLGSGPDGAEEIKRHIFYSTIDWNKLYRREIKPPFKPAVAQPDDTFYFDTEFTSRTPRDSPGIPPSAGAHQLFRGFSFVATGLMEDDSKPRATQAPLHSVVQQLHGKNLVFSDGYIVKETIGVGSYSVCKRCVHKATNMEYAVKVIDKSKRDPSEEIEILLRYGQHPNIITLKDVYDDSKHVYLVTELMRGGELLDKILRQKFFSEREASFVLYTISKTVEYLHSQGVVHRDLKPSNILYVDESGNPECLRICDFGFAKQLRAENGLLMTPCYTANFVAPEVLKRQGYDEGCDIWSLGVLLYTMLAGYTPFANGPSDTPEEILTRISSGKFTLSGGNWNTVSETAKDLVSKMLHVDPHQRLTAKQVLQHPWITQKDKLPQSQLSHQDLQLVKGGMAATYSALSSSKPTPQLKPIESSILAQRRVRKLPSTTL
T7 sequence (P07949 29-1114 V804M): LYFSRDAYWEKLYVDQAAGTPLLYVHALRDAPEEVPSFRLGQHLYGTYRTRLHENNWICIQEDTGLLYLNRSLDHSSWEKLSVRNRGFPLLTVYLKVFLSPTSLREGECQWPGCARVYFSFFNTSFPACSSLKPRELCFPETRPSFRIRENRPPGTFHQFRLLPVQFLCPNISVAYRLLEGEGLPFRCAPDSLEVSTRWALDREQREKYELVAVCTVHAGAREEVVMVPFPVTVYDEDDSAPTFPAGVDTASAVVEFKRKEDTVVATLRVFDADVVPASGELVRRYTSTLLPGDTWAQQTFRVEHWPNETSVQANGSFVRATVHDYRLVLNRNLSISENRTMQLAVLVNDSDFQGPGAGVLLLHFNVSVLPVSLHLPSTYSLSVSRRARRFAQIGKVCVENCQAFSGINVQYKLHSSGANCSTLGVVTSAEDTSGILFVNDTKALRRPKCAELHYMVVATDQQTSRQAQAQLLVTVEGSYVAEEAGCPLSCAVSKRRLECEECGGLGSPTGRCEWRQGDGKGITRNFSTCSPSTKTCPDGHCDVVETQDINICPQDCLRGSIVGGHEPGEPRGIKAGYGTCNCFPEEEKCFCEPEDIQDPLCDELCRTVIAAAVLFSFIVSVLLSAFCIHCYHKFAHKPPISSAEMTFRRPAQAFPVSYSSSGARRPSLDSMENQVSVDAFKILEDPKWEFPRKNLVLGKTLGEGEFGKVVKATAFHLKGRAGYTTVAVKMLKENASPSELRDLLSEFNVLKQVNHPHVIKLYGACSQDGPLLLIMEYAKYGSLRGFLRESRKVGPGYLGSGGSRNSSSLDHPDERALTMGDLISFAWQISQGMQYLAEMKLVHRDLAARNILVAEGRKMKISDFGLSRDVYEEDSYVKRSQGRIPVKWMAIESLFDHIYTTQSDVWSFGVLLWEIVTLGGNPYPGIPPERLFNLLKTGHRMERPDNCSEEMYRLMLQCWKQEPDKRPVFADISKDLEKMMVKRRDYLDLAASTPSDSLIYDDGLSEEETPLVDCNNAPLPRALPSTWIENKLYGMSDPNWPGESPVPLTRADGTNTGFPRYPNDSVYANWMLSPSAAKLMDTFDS
T3 sequence (P08581 956-1390 Y1230H limits assumed): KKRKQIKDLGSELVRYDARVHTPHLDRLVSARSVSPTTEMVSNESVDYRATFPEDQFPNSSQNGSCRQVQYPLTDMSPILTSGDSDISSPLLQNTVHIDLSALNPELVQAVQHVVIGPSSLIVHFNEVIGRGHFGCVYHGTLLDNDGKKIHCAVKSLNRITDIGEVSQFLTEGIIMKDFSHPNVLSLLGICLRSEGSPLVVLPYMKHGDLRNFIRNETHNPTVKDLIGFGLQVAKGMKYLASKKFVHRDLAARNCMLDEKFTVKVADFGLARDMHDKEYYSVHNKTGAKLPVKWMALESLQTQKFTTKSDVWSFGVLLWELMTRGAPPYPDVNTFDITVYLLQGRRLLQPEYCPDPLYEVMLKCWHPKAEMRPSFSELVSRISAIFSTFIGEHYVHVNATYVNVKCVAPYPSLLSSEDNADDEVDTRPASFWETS
T4 sequence (Q8TDX7 whole entry): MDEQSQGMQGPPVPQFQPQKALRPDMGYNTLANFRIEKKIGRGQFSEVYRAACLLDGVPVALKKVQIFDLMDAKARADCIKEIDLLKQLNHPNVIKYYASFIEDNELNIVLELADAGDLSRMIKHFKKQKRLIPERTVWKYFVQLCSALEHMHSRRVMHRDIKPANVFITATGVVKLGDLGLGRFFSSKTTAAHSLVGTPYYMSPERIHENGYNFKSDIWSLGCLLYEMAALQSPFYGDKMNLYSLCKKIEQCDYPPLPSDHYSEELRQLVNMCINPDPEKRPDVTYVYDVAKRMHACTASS
T6 sequence (P07949 29-1114 V804L): as the sequence (P07949 29-1114 V804M) above, with M776L counted along it
T5 sequence (Q9Y243 whole entry): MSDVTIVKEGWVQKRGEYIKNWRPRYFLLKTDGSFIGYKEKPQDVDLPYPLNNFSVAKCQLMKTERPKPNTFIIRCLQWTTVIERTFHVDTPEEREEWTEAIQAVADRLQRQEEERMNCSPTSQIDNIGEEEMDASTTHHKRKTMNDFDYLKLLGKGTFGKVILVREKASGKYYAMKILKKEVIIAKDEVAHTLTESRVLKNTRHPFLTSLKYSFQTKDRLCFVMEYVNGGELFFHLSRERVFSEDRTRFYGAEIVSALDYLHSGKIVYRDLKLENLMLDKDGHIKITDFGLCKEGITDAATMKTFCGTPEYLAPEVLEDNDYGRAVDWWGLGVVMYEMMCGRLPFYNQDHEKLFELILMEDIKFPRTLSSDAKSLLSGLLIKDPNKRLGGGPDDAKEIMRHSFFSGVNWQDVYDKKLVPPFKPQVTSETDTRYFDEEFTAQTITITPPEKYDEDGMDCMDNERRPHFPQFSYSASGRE

Q: Which inhibition at 0.01 µM (BrSK1(h); 10 nM) does the source give for COc1cc(OC)c(Cl)c(-c2ccc3c(NC(=O)c4ccc(N5CCNC(C)(C)C5)cc4)n[nH]c3n2)c1Cl [3D185] here?
A: 13%

Q: And the inhibition at 0.1 µM (BrSK1(h); 100 nM)?
A: 11%

Q: What about the inhibition at 1 µM (BrSK1(h); 1000 nM) of the same compound?
A: 11%

Q: And the inhibition at 0.01 µM (CaMKIγ(h); 10 nM)?
A: -1%

Q: And the inhibition at 0.1 µM (CaMKIγ(h); 100 nM)?
A: 3%

Q: What about the inhibition at 1 µM (CaMKIγ(h); 1000 nM) of the same compound?
A: 41%

Q: And the inhibition at 0.01 µM (Met(Y1248H)(h); 10 nM)?
A: -16%

Q: What about the inhibition at 0.1 µM (Met(Y1248H)(h); 100 nM) of the same compound?
A: 8%

Q: What about the inhibition at 1 µM (Met(Y1248H)(h); 1000 nM) of the same compound?
A: 46%

Q: And the inhibition at 0.01 µM (NEK7(h); 10 nM)?
A: 2%

Q: What about the inhibition at 0.1 µM (NEK7(h); 100 nM) of the same compound?
A: 1%

Q: And the inhibition at 1 µM (NEK7(h); 1000 nM)?
A: -1%

Q: What about the inhibition at 0.01 µM (PKBγ(h); 10 nM) of the same compound?
A: 4%

Q: And the inhibition at 0.1 µM (PKBγ(h); 100 nM)?
A: 12%

Q: What about the inhibition at 1 µM (PKBγ(h); 1000 nM) of the same compound?
A: 20%

Q: And the inhibition at 0.01 µM (Ret (V804L)(h); 10 nM)?
A: -13%

Q: What about the inhibition at 0.1 µM (Ret (V804L)(h); 100 nM) of the same compound?
A: -15%

Q: What about the inhibition at 1 µM (Ret (V804L)(h); 1000 nM) of the same compound?
A: 20%

Q: What about the inhibition at 0.01 µM (Ret(V804M)(h); 10 nM) of the same compound?
A: -3%

Q: What about the inhibition at 0.1 µM (Ret(V804M)(h); 100 nM) of the same compound?
A: -2%

Q: And the inhibition at 1 µM (Ret(V804M)(h); 1000 nM)?
A: 56%

Q: What about the inhibition at 0.01 µM (Rsk1(r); 10 nM) of the same compound?
A: -17%

Q: And the inhibition at 0.1 µM (Rsk1(r); 100 nM)?
A: 8%

Q: And the inhibition at 1 µM (Rsk1(r); 1000 nM)?
A: 30%

Q: And the inhibition at 0.01 µM (SAPK3(h); 10 nM)?
A: -4%

Q: What about the inhibition at 0.1 µM (SAPK3(h); 100 nM) of the same compound?
A: -12%

Q: And the inhibition at 1 µM (SAPK3(h); 1000 nM)?
A: -7%

Q: And the inhibition at 0.01 µM (TSSK3(h); 10 nM)?
A: 14%

Q: What about the inhibition at 0.1 µM (TSSK3(h); 100 nM) of the same compound?
A: 5%

Q: And the inhibition at 1 µM (TSSK3(h); 1000 nM)?
A: 5%

Q: And the inhibition at 0.01 µM (TTBK2(h); 10 nM)?
A: -4%

Q: What about the inhibition at 0.1 µM (TTBK2(h); 100 nM) of the same compound?
A: -11%

Q: And the inhibition at 1 µM (TTBK2(h); 1000 nM)?
A: -9%
